Experimental data taken from patent publication US10988433B2, “Cyclohexyl GPR40 agonists for the treatment of type II diabetes” (Janssen Pharmaceutica NV, priority 2016, dated 2021).

How the values were obtained:
rat GPR40 = molecular target: T1, rat GPR40 (Rattus norvegicus, UniProt Q8K3T4); test: GPR40 calcium flux assay, HEK293 cells stably expressing rat GPR40; format: cell-based; conditions: transfected HEK293 cells stably expressing rat GPR40, Fluo 8 dye, read-out: rGPR40 Ca2+ Assay EC50
T1 construct: expressed in transfected cells
T1 sequence (Q8K3T4 whole entry): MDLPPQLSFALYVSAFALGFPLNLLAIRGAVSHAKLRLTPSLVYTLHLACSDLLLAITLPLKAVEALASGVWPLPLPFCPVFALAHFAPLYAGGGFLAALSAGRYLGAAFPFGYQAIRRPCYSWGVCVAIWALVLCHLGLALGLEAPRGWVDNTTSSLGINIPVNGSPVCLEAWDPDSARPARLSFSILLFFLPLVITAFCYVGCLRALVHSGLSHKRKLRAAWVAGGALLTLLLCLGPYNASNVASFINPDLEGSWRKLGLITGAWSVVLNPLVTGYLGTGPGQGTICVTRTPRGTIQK
Protocol: (§1) Compounds were tested in a calcium flux assay using transfected HEK293 cells stably expressing either human GPR40 or rat GPR40. Human GPR40 expressing cells were cultured in DMEM-High Glucose media supplemented with 10% fetal bovine serum, 1×L-Glutamine, 1×Penicillin/Streptomycin and 500 μg/mL G418. Rat GPR40 expressing cells were cultured in DMEM-High Glucose media supplemented with 10% fetal bovine serum and 1 μg/mL puromycin. Cells were plated into poly-D-lysine coated 384-well plates and cultured overnight in a 37° C. humidified tissue culture incubator under 5% CO2/[…] atmosphere. On the day of the experiment, the culture media was replaced with assay buffer (HBSS, 20 mM HEPES, 0.1% BSA) and the cells incubated at 37° C. for 1 h. Calcium-sensitive fluorescent dye (Fluo 8 No-Wash Calcium Dye, ABD Bioquest) was then added and the cells incubated for another 30 min at 37° C. followed by 15 min at room temperature while protected from the light. The cell plate and a plate of diluted compounds of Formula (I) were loaded into a fluorescent plate reader that added compounds onto the cells while measuring the fluorescence intensity of each well. The plate reader recorded fluorescence intensity at 1 second intervals for 8 min and provided the data for analysis in an Excel format. EC50 values were calculated using Prism (GraphPad) software.

human GPR40 = molecular target: T2, human GPR40 (Homo sapiens, UniProt O14842); test: GPR40 calcium flux assay, HEK293 cells stably expressing human GPR40; format: cell-based; conditions: transfected HEK293 cells stably expressing human GPR40, Fluo 8 dye, read-out: hGPR40 Ca2+ Assay EC50
T2 construct: expressed in transfected cells
T2 sequence (O14842 whole entry): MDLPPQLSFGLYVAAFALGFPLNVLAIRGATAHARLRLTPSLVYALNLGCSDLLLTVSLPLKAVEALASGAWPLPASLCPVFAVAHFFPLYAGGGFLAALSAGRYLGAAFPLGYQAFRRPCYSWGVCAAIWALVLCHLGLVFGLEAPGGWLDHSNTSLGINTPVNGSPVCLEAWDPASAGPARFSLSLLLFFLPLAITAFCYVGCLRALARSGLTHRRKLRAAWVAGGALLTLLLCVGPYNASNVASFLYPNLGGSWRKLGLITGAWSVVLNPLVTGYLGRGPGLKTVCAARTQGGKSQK
Protocol: as §1

Row | Compound | EC50 (rat GPR40) [nM] | EC50 (human GPR40) [nM]
1 | COc1ccc(F)c([C@H]2CC[C@H](COc3cccc([C@H](C4CC4)[C@](C)(F)C(=O)O)c3)CC2)c1 [Cpd 60, (2S,3S)-3-Cyclopropyl-2-fluoro-3-(3-(((1r,4S)-4-(2-fluoro-5-methoxyphenyl)cyclohexyl)methoxy)phenyl)-2-methylpropanoic acid] | 6.88 | 6.05
2 | COc1ccc(F)c([C@H]2CC[C@H](COc3cccc(C(CC(=O)O)C4CC4)n3)CC2)c1 (mixture of isomers) [Cpd 13, 3-Cyclopropyl-3-(6-(((1r,4r)-4-(2-fluoro-5-methoxyphenyl)cyclohexyl)methoxy)pyridin-2-yl)propanoic acid] | 143 | 32.7
3 | COc1ccc(F)c([C@H]2CC[C@@H](COc3cccc([C@@H](Cc4nnn[nH]4)C4CC4)c3)CC2)c1 [Cpd 39, 5-((S)-2-Cyclopropyl-2-(3-(((1s,4R)-4-(2-fluoro-5-methoxyphenyl)cyclohexyl)methoxy)phenyl)ethyl)-1H-tetrazole] | 3150 | 600
4 | COc1ccc(F)c([C@H]2CC[C@@H](COc3ccnc(C(CC(=O)O)C4CC4)c3)CC2)c1 (some centres unmarked) [Cpd 35, 3-Cyclopropyl-3-(4-(((1s,4s)-4-(2-fluoro-5-methoxyphenyl)cyclohexyl)methoxy)pyridin-2-yl)propanoic acid] | 5320 | 1840
5 | COc1ccc(F)c([C@H]2CC[C@H](COc3cccc([C@H](C4CC4)C(C)(F)C(=O)O)c3)CC2)c1 (stereo partly drawn) [Cpd 58, (3S)-3-Cyclopropyl-2-fluoro-3-(3-(((1r,4S)-4-(2-fluoro-5-methoxyphenyl)cyclohexyl)methoxy)phenyl)-2-methylpropanoic acid] | 0.23 | 0.3
6 | COc1ccc(F)c([C@H]2CC[C@H](COc3cccc([C@H](C4CC4)[C@H](C)C(=O)O)c3)CC2)c1 [Cpd 52, (2S,3R)-3-cyclopropyl-3-(3-(((1r,4R)-4-(2-fluoro-5-methoxyphenyl)cyclohexyl)methoxy)phenyl)-2-methylpropanoic acid] | 0.4 | 0.2
7 | C[C@](F)(C(=O)O)[C@H](c1cccc(OCC2CCC(c3cc(F)ccc3F)CC2)c1)C1CC1 (stereo partly drawn) [Cpd 75, (2R,3S)-3-Cyclopropyl-3-(3-((4-(2,5-difluorophenyl)cyclohexyl)methoxy)phenyl)-2-fluoro-2-methylpropanoic acid] | 8.93 | 0.44
8 | COc1ccc(F)c([C@]2(OC)CC[C@H](COc3cccc([C@@H](CC(=O)O)C4CC4)c3)CC2)c1 [Cpd 12, (S)-3-Cyclopropyl-3-(3-(((1r,4S)-4-(2-fluoro-5-methoxyphenyl)-4-methoxycyclohexyl)methoxy)phenyl)propanoic acid] | 152 | 13.8
9 | C[C@](F)(C(=O)O)[C@H](c1cccc(OC[C@H]2CC[C@H](c3cc(OC(F)(F)F)ccc3F)CC2)c1)C1CC1 [Cpd 74, (2R,3S)-3-Cyclopropyl-2-fluoro-3-(3-(((1r,4S)-4-(2-fluoro-5-(trifluoromethoxy)phenyl)cyclohexyl)methoxy)phenyl)-2-methylpropanoic acid] | 16.2 | 14.1
10 | COc1ccc(F)c([C@H]2CC[C@@H](COc3cncc(C(CC(=O)O)C4CC4)c3)CC2)c1 (some centres unmarked) [Cpd 18, 3-Cyclopropyl-3-(5-(((1s,4s)-4-(2-fluoro-5-methoxyphenyl)cyclohexyl)methoxy)pyridin-3-yl)propanoic acid] | – | 226
11 | COc1ccc(F)c([C@H]2CC[C@H](COc3cccc([C@H](CC(=O)O)C4CC4)c3)CC2)c1 [Cpd 38, (R)-3-cyclopropyl-3-(3-(((1r,4R)-4-(2-fluoro-5-methoxyphenyl)cyclohexyl)methoxy)phenyl)propanoic acid] | 15.6 | 6.2
12 | COc1cc([C@H]2CC[C@H](COc3cc(C(CC(=O)O)C4CC4)ccn3)CC2)c(F)cn1 (some centres unmarked) [Cpd 8, 3-Cyclopropyl-3-(2-(((1r,4r)-4-(5-fluoro-2-methoxypyridin-4-yl)cyclohexyl)methoxy)pyridin-4-yl)propanoic acid] | 1.4 | 0.5
13 | COc1cncc(C2CCC(COc3cc([C@@H](CC(=O)O)C4CC4)ccn3)CC2)n1 (stereo partly drawn) [Cpd 46, (S)-3-Cyclopropyl-3-(2-((4-(6-methoxypyrazin-2-yl)cyclohexyl)methoxy)pyridin-4-yl)propanoic acid] | > 10000 | 5800
14 | COc1cc([C@H]2CC[C@H](COc3cccc([C@@H](CC(=O)O)C4CC4)c3)CC2)c(F)cn1 [Cpd 9, (S)-3-Cyclopropyl-3-(3-(((1r,4S)-4-(5-fluoro-2-methoxypyridin-4-yl)cyclohexyl)methoxy)phenyl)propanoic acid] | 2.8 | 0.5
15 | CCOc1cc([C@H]2CC[C@@H](COc3cc([C@@H](CC(=O)O)C4CC4)ccn3)CC2)c(F)cn1 [Cpd 48, (S)-3-cyclopropyl-3-(2-(((1s,4R)-4-(2-ethoxy-5-fluoropyridin-4-yl)cyclohexyl)methoxy)pyridin-4-yl)propanoic acid] | 676 | 212
16 | COc1ccc(F)c(C2=CCC(COc3cccc([C@H](C4CC4)[C@@](C)(F)C(=O)O)c3)CC2)c1 (stereo partly drawn) [Cpd 76, (2R,3S)-3-Cyclopropyl-2-fluoro-3-(3-((2′-fluoro-5′-methoxy-2,3,4,5-tetrahydro-[1,1′-biphenyl]-4-yl)methoxy)phenyl)-2-methylpropanoic acid] | 0.71 | 0.18
17 | COc1ccc(F)c([C@H]2CC[C@@H](COc3cccc(C(CC(=O)O)C4CC4)n3)CC2)c1 (some centres unmarked) [Cpd 14, 3-Cyclopropyl-3-(6-(((1 s,4s)-4-(2-fluoro-5-methoxyphenyl)cyclohexyl)methoxy)pyridin-2-yl)propanoic acid] | – | 1500
18 | COc1ccc(F)c(C2CCC(COc3cccc([C@@H](CC(=O)O)C4CC4)c3)C(CC(C)C)C2)c1 (stereo partly drawn) [Cpd 29, (3S)-3-Cyclopropyl-3-(3-((4-(2-fluoro-5-methoxyphenyl)-2-isobutylcyclohexyl)methoxy)phenyl)propanoic acid] | 40.9 | 17.9
19 | COc1cc(C2CCC(COc3cccc([C@@H](CC(=O)O)C4CC4)c3)C(CC(C)C)C2)c(F)cn1 (stereo partly drawn) [Cpd 30, (3S)-3-Cyclopropyl-3-(3-((4-(5-fluoro-2-methoxypyridin-4-yl)-2-isobutylcyclohexyl)methoxy)phenyl)propanoic acid] | 29.4 | 2.1
20 | COc1ccc(F)c(C2CCC(COc3cccc(C(CC(=O)O)C4CC4)c3)CC2)c1 (centres unmarked) [Cpd 55, 3-Cyclopropyl-3-(3-(((1 s,4 s)-4-(2-fluoro-5-methoxyphenyl)cyclohexyl)methoxy)phenyl)propanoic acid] | 346 | 133
21 | COc1ccc(F)c([C@H]2CC[C@H](COc3cc([C@H](C4CC4)C(C)(F)C(=O)O)ccn3)CC2)c1 (stereo partly drawn) [Cpd 79, (3S)-3-Cyclopropyl-2-fluoro-3-(2-(((1r,4S)-4-(2-fluoro-5-methoxyphenyl)cyclohexyl)methoxy)pyridin-4-yl)-2-methylpropanoic acid] | 28 | 13
22 | COc1ccnc(C2CCC(COc3cc([C@@H](CC(=O)O)C4CC4)ccn3)CC2)n1 (stereo partly drawn) [Cpd 49, (S)-3-Cyclopropyl-3-(2-((4-(4-methoxypyrimidin-2-yl)cyclohexyl)methoxy)pyridin-4-yl)propanoic acid] | 1110 | 244
23 | COc1cc([C@H]2CC[C@H](COc3cc([C@@H](Cc4nnn[nH]4)C4CC4)ccn3)CC2)c(F)cn1 [Cpd 43, 4-((1S,4r)-4-(((4-((S)-1-Cyclopropyl-2-(1H-tetrazol-5-yl)ethyl)pyridin-2-yl)oxy)methyl)cyclohexyl)-5-fluoro-2-methoxypyridine] | 464 | 281
24 | COc1ccc(F)c([C@H]2CC[C@H](COc3cccc(C(CC(=O)O)C4CC4)c3)CC2)c1 (mixture of isomers) [Cpd 56, 3-Cyclopropyl-3-(3-(((1r,4r)-4-(2-fluoro-5-methoxyphenyl)cyclohexyl)methoxy)phenyl) propanoic acid] | 14.4 | 3
25 | COc1cc([C@H]2CC[C@@H](COc3cccc(C(CC(=O)O)C4CC4)n3)CC2)c(F)cn1 (some centres unmarked) [Cpd 16, 3-Cyclopropyl-3-(6-(((1s,4s)-4-(5-fluoro-2-methoxypyridin-4-yl)cyclohexyl)methoxy)pyridin-2-yl)propanoic acid] | – | 3080
26 | COc1cc([C@H]2CC[C@H](COc3cccc(C(CC(=O)O)C4CC4)n3)CC2)c(F)cn1 (some centres unmarked) [Cpd 15, 3-Cyclopropyl-3-(6-(((1r,4r)-4-(5-fluoro-2-methoxypyridin-4-yl)cyclohexyl)methoxy)pyridin-2-yl)propanoic acid] | – | 138
27 | COc1cc([C@H]2CC[C@@H](COc3cncc(C(CC(=O)O)C4CC4)c3)CC2)c(F)cn1 (some centres unmarked) [Cpd 23, 3-Cyclopropyl-3-(5-(((1s,4s)-4-(5-fluoro-2-methoxypyridin-4-yl)cyclohexyl)methoxy)pyridin-3-yl)propanoic acid] | – | 307
28 | COc1ccc(F)c([C@]2(O)CC[C@H](COc3cccc([C@@H](CC(=O)O)C4CC4)c3)CC2)c1 [Cpd 6, (S)-3-Cyclopropyl-3-(3-(((1r,4S)-4-(2-fluoro-5-methoxyphenyl)-4-hydroxycyclohexyl)methoxy)phenyl)propanoic acid] | – | 377
